Results from the supplement of paper PMC10307832.

Experiments:
Experiment in all cases: relative viability (nuclei count vs DMSO), 5 days (fraction); higher = more cells survive
Erlotinib + Luminespib = compound: C#Cc1cccc(Nc2ncnc3cc(OCCOC)c(OCCOC)cc23)c1 [Erlotinib] + CCNC(=O)c1noc(-c2cc(C(C)C)c(O)cc2O)c1-c1ccc(CN2CCOCC2)cc1 [Luminespib] (partner 0.01 µM)
Procedure, shortened: (§1)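 Nuclei were stained with Hoechst during a one-step fixation (final 0.05% Triton X-100, 1% formaldehyde, 1 ug/ml Hoechst) carried out 5 days after dosing, then counted on 4× images. The cells, lung cancer lines in 1536-well plates, had been dosed by pin tool the day after seeding with one drug alone or a fixed anchor-drug dose plus five library-drug doses (not always all listed) in √10 steps. Relative viability is the nuclei count in treated wells divided by that in vehicle wells, and each value is the median of duplicate plates.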

Erlotinib + Decitabine = compound: C#Cc1cccc(Nc2ncnc3cc(OCCOC)c(OCCOC)cc23)c1 [Erlotinib] + Nc1ncn([C@H]2C[C@H](O)[C@@H](CO)O2)c(=O)n1 [Decitabine] (partner 2 µM)
Procedure, shortened: as §1

Erlotinib + Vorinostat = compound: C#Cc1cccc(Nc2ncnc3cc(OCCOC)c(OCCOC)cc23)c1 [Erlotinib] + O=C(CCCCCCC(=O)Nc1ccccc1)NO [Vorinostat] (partner 1 µM)
Procedure, shortened: as §1

AT9283 + AZD7762 = compound: O=C(Nc1c[nH]nc1-c1nc2ccc(CN3CCOCC3)cc2[nH]1)NC1CC1 [AT9283] + NC(=O)Nc1cc(-c2cccc(F)c2)sc1C(=O)N[C@H]1CCCNC1 [AZD7762] (partner 0.2 µM)
Procedure, shortened: as §1

AT9283 + Vorinostat = compound: O=C(Nc1c[nH]nc1-c1nc2ccc(CN3CCOCC3)cc2[nH]1)NC1CC1 [AT9283] + O=C(CCCCCCC(=O)Nc1ccccc1)NO [Vorinostat] (partner 1 µM)
Procedure, shortened: as §1

NCI-H441 showed a relative viability (Erlotinib + Luminespib; first compound 0.02 µM) of 0.259, a relative viability (Erlotinib + Luminespib; first compound 0.2 µM) of 0.32 and a relative viability (Erlotinib + Luminespib; first compound 0.6325 µM) of 0.345. It also gave a relative viability (Erlotinib + Luminespib; first compound 2 µM) of 0.345, a relative viability (Erlotinib + Decitabine; first compound 0.02 µM) of 0.232 and a relative viability (Erlotinib + Decitabine; first compound 0.2 µM) of 0.26. It also gave a relative viability (Erlotinib + Decitabine; first compound 0.6325 µM) of 0.215, a relative viability (Erlotinib + Decitabine; first compound 2 µM) of 0.257 and a relative viability (Erlotinib + Vorinostat; first compound 0.02 µM) of 0.841. The relative viability (Erlotinib + Vorinostat; first compound 0.2 µM) was 0.725, the relative viability (Erlotinib + Vorinostat; first compound 0.6325 µM) was 0.84 and the relative viability (Erlotinib + Vorinostat; first compound 2 µM) was 0.745. For the same cell line, the relative viability (AT9283 + AZD7762; first compound 0.003 µM) was 1.06, the relative viability (AT9283 + AZD7762; first compound 0.03 µM) was 1.1 and the relative viability (AT9283 + AZD7762; first compound 0.09487 µM) was 0.894. The relative viability (AT9283 + AZD7762; first compound 0.3 µM) was 0.633, the relative viability (AT9283 + Vorinostat; first compound 0.003 µM) was 0.698 and the relative viability (AT9283 + Vorinostat; first compound 0.03 µM) was 0.499. The relative viability (AT9283 + Vorinostat; first compound 0.09487 µM) was 0.669 and the relative viability (AT9283 + Vorinostat; first compound 0.3 µM) was 0.307.
